# From PubChem BioAssay AID1033 (Sanford-Burnham Center for Chemical Genomics, 2008)
# Calls of active or inactive are those of the source. How the calls were made is not given here.
# Biological target: Chaperone protein DnaK (Escherichia coli (strain K12)) (UniProt P0A6Y8)
# Experiment: E. coli DnaK SBD ligand binding – biophysical, NMR, chaperone (AID 1033)
# Conditions: Purified DnaK SBD
# Chaperone protein DnaK (Escherichia coli (strain K12)), sequence (P0A6Y8 whole entry, looked up): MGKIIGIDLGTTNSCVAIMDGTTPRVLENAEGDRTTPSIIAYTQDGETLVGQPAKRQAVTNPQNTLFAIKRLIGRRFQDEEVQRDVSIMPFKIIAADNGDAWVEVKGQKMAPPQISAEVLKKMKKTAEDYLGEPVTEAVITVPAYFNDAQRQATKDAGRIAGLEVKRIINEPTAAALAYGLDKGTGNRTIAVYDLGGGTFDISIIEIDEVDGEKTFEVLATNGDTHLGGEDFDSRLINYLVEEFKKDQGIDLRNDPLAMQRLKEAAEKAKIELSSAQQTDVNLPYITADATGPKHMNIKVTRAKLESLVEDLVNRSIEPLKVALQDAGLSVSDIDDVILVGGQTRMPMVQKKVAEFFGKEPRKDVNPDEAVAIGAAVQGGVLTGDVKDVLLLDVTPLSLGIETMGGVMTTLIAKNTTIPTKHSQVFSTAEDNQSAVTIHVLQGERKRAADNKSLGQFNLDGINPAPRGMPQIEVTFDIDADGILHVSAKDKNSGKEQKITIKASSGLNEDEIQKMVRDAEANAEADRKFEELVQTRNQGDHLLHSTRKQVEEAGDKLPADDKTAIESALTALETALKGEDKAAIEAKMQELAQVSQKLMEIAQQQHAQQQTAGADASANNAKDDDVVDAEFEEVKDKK
row,SMILES,Kd
1,Cc1ccc(N2NC(=O)CC2=O)cc1C,> 4 mM (inactive)
2,COc1ccc2c(c1OC)OC[C@@H](c1ccc(OC)c(OC)c1OC)C2,> 4 mM (inactive)
3,O=C1OC(N2CCOCC2)c2ccccc21 (centres undefined),> 4 mM (inactive)
4,CC(=O)NC(=S)Nc1ccccc1C,> 4 mM (inactive)
5,Cc1cc(C)n(S(=O)(=O)c2cc(C)c(C)cc2C)n1,> 4 mM (inactive)
6,COc1cc(C(=S)N2CCOCC2)ccc1O,> 4 mM (inactive)
7,Nc1ncnc(NCCO)c1[N+](=O)[O-],> 4 mM (inactive)
8,CCn1c(=O)cc(N2CCC3(CC2)OCCO3)[nH]c1=O,> 4 mM (inactive)
9,O=C(Nn1cnnc1)c1cc2c(s1)CCCC2,> 4 mM (inactive)
10,Cc1cc(C(=O)N2CCN(S(C)(=O)=O)CC2)cs1,> 4 mM (inactive)
11,CCSc1n[nH]c(=O)[nH]c1=O,> 4 mM (inactive)
12,COc1ccc(Cl)cc1-c1nc(-c2ccncc2)no1,> 4 mM (inactive)
13,NC(=O)C1CCN(C(=S)Nc2ccccc2)CC1,> 4 mM (inactive)
14,O=C(Cc1cccs1)Nc1nncs1,> 4 mM (inactive)
15,CC12CN(CC#N)CC(C)(CN(CC#N)C1)C2=O,> 4 mM (inactive)
16,Fc1ccc(CN2CCCNCC2)cc1,> 4 mM (inactive)
17,Cc1nn(-c2ccccc2)nc1CN,> 4 mM (inactive)
18,CN1C(=O)C2C=CC1C1C(=O)N(c3ccccc3)C(=O)C21 (centres undefined),> 4 mM (inactive)
19,Cc1ccccc1NC(=O)CSc1ccnc(=O)[nH]1,> 4 mM (inactive)
20,O=C(O)C1=Cc2ccccc2OC1,> 4 mM (inactive)

row,SMILES,Kd
1,N#Cc1c(N)c(C(=O)c2ccccc2)n2c1CCC2,> 4 mM (inactive)
2,CC1=C(C(=O)Nc2ccccc2)SCCO1,> 4 mM (inactive)
3,O=C1CCC(=O)N1CNc1ccccc1,> 4 mM (inactive)
4,Cn1cc(C(=O)N/N=C/c2ccccc2)ccc1=O,> 4 mM (inactive)
5,OCC1Cc2ccccc2N1 (centres undefined),> 4 mM (inactive)
6,Cc1cc(=O)cc(C)n1-c1ccccc1N1CCOCC1,> 4 mM (inactive)
7,CSc1ccccc1NC(=O)c1ccco1,> 4 mM (inactive)
8,O=C1CCCc2c1nc(-c1ccccc1)n2O,> 4 mM (inactive)
9,CCc1ccc2oc(-c3cc(N)cc(C)c3O)nc2c1,> 4 mM (inactive)
10,CCn1nnc(NC(=O)c2ccccc2Br)n1,> 4 mM (inactive)
11,O=S(=O)(CCN1CCCC1)c1ccccc1,> 4 mM (inactive)
12,O=C1COc2ccccc2C(=O)N1,> 4 mM (inactive)
13,S=C=NCc1ccccc1,> 4 mM (inactive)
14,COc1cc([C@@H]2c3cc4c(cc3C(OC3O[C@@H]5COC(C)O[C@H]5[C@H](O)[C@H]3O)C3COC(=O)[C@@H]32)OCO4)cc(OC)c1O (some centres undefined),> 4 mM (inactive)
15,c1cncc(C(N2CCOCC2)N2CCOCC2)c1,> 4 mM (inactive)
16,CC(=O)Oc1cc2c(C(C)=O)coc2c2ccccc12,> 4 mM (inactive)
17,N#Cc1cnn(Cc2ccc(Cl)cc2)c1N,> 4 mM (inactive)
18,O=c1[nH]oc2ccccc12,> 4 mM (inactive)
19,NCc1csc(-c2cccs2)n1,> 4 mM (inactive)
20,CNc1nc(N)c(C(=O)C(C)(C)C)s1,> 4 mM (inactive)

row,SMILES,Kd
1,COC(=O)c1ccc2ncccc2c1,> 4 mM (inactive)
2,COc1ccc(NC(=O)CCCC(=O)O)c(OC)c1,> 4 mM (inactive)
3,COC(=O)C1=C(C)N(c2cccc(C(C)=O)c2)C(=O)C1,> 4 mM (inactive)
4,Cc1cc(OC(=O)c2ccco2)c([N+](=O)[O-])c(=O)[nH]1,> 4 mM (inactive)
5,Cc1ccc(-c2c(C)n([O-])c(C)c(C)[n+]2=O)cc1,> 4 mM (inactive)
6,NS(=O)(=O)c1ccc(N=C2NC(=O)CS2)cc1,> 4 mM (inactive)
7,CCC(C)OC1CCS(=O)(=O)C1 (centres undefined),> 4 mM (inactive)
8,CCCc1ncc(C(O)c2cccc3ccccc23)n1C (centres undefined),> 4 mM (inactive)
9,Cc1occc1C(=O)Nc1ccc2c(c1)OCO2,> 4 mM (inactive)
10,NC(=O)CSc1ccc2nnc(-c3cccs3)n2n1,> 4 mM (inactive)
11,O=C(O)C1CSC(c2ccccc2)N1 (centres undefined),> 4 mM (inactive)
12,COc1cc([C@@H]2c3cc4c(cc3[C@H](OC(C)=O)[C@H]3COC(=O)[C@H]23)OCO4)cc(OC)c1OC,> 4 mM (inactive)
13,Cc1cc(O)c2c(c1O)C(=O)c1c(O)cc(C)c(O)c1C2=O,> 4 mM (inactive)
14,CC[C@H](/C=C/C(C)C1CCC2C3CCC4=CC(=O)CC[C@]4(C)C3CC[C@]12C)C(C)C (some centres undefined),> 4 mM (inactive)
15,CCc1ccccc1OCc1nnc(N)s1,> 4 mM (inactive)
16,COc1cccc(-c2nc3ccc(O)cc3c(=O)o2)c1,> 4 mM (inactive)
17,O=C(Nc1cnccn1)c1cccnc1,> 4 mM (inactive)
18,c1ccc(-c2noc(-c3cccnc3)n2)nc1,> 4 mM (inactive)
19,CCOC(=O)C1CCN(c2ncnc3nc[nH]c23)CC1,> 4 mM (inactive)
